Activity calls are given as the source filed them.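 The calls were made as follows: active = substrate turnover at or below 60%; inactive = substrate turnover above 60%.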

Chain of Diacylglycerol lipase-beta (Mus musculus) (Q91WC9 whole entry, looked up): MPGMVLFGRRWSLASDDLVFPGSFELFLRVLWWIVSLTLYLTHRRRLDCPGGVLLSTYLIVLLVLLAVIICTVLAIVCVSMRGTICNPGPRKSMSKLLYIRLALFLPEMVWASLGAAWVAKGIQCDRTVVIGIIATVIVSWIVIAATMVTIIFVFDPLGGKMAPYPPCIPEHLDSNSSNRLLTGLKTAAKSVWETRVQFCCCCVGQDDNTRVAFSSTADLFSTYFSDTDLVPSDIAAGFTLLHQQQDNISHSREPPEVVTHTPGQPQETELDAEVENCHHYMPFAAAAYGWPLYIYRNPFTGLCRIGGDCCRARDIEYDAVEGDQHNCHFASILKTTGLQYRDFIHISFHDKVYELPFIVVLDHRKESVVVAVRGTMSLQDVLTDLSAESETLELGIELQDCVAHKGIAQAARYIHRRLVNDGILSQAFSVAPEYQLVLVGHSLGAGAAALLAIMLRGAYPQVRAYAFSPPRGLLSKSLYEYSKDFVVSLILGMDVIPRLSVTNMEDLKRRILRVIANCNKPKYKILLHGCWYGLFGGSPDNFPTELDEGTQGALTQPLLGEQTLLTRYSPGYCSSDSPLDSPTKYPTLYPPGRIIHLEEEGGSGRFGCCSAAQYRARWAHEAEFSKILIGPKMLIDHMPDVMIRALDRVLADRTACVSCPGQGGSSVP

The assay addresses Diacylglycerol lipase-beta (Mus musculus) (UniProt Q91WC9). The assay is described as follows: mouse DAGLb substrate turnover inhibition – biochemical, LC-MS, overexpressed mouse DAGLb (AID 602415). The settings on record: HEK293T membranes overexpressing mDAGLb, SAG turnover LC-MS; at 10 µM; active compounds read low.
Turning to `CC(=O)c1ccc(N2CCN(c3ccc(C(F)(F)F)cn3)CC2)cc1`, the substrate turnover was 67% (inactive).
With `CC1(C)CC(=O)C2=C(C1)N=C1c3ccccc3C(=O)C1C2c1ccc(Cl)cc1` (stereo not given), the substrate turnover is 82% (inactive).
`O=[N+]([O-])c1ccc(C=NNc2ccc3ccccc3c2)o1`: the substrate turnover was 67% (inactive).
On to `Cc1cc(N=Nc2ccccc2)c(NCC(O)C(O)C(O)CO)cc1C` (stereo not given), for which the substrate turnover was 69% (inactive).
The figure for `Cc1ccc(Nc2nnc(SCc3nc4ccccc4c(=O)[nH]3)s2)cc1` is 87% (inactive).
For the compound `Nc1ccc2c(c1)C(=O)c1cc(Cl)c(Cl)cc1-2`, the substrate turnover is 47%.
In the case of `CC1CC(C)CN(C(=O)c2ccc3c(c2NCCO)C(=O)c2ccccc2C3=O)C1` (stereo not given) it was 78% (inactive); in that of `CC1=NN(c2ccccc2)C(=O)C1N=Nc1ccc(N)cc1` (stereo not given), 65% (inactive); in that of `O=C1CC(=C(c2ccccc2)c2ccccc2)C(=O)N1CCCCN1CCN(c2cccc(Cl)c2)CC1`, 26%.
Take `COc1cc(/C=C2/C(=O)NN(c3ccc(C)c(Cl)c3)C2=O)cc([N+](=O)[O-])c1O`: the substrate turnover was 43%.
In the case of `Cn1cc(/C=C2\SC(=O)NC2=S)c2ccccc21` it was 61% (inactive).
`O=C(O)COc1ccccc1C=NNc1ccc(S(=O)(=O)Nc2ccc(Cl)cc2)cc1[N+](=O)[O-]`: the substrate turnover was 50%.
Turning to `CCSC1=NC(=O)/C(=C2/C=Cc3ccccc3N2CC)S1`, the substrate turnover is 100% (inactive).
As for `CC(=O)Nc1ccc(/C=N/Nc2ccc(S(=O)(=O)Nc3ccccc3C(=O)O)cc2[N+](=O)[O-])cc1`, the substrate turnover was 84% (inactive).
Consider `CC1(C)CC(=O)C2=C(C1)c1c(ccc3ccccc13)NC2c1cc([N+](=O)[O-])cc([N+](=O)[O-])c1O` (stereo not given), for which the substrate turnover was 46%.
With `CN(C)c1ccc(N=Nc2ccccc2C(=O)OCC(=O)Nc2ccccc2C(F)(F)F)cc1`, the substrate turnover was 67% (inactive).
Turning to `Cc1ccc(-n2c(O)c(/C=N/Nc3ccc(S(=O)(=O)N4CCOCC4)cc3[N+](=O)[O-])c3ccccc3c2=O)c(C)c1`, the substrate turnover is 56%.
Turning to `O=C(NNc1c2ccccc2nc2ccccc12)c1ccccc1O`, the substrate turnover was 56%.
In the case of `COc1ccccc1C=NNc1ccccc1[N+](=O)[O-]` it was 94% (inactive); in that of `O=S(=O)(O)c1cccc(N=Nc2c(O)ccc3ccccc23)c1`, 59%; in that of `O=C1c2ccccc2C(=O)c2c1cccc2N1CCCC1`, 79% (inactive).
Regarding `CCCCCCCCCCC[C@@H](C[C@@H]1OC(=O)[C@H]1CCCCCC)OC(=O)[C@H](CC(C)C)NC=O`, the substrate turnover was 0%.
Regarding `Cc1[nH]n2c(=O)cc(-c3ccc([N+](=O)[O-])cc3)nc2c1-c1ccccc1`, the substrate turnover is 90% (inactive).
`CC(=O)c1c(C)oc2ccc(NS(=O)(=O)c3ccc(O)c(C(=O)O)c3)cc12`: the substrate turnover is 23%.
As for `O=C1S/C(=C\c2ccc(O)c([N+](=O)[O-])c2)C(=O)N1c1ccccc1Cl`, the substrate turnover is 76% (inactive).
Turning to `COC(=O)C1=C(C(=O)OC)SC(=C2C(=S)C(C)(C)N(C(=O)C3CC3)c3ccccc32)S1`, the substrate turnover was 95% (inactive).
On to `CCOc1ccc(Nc2nnc(SCc3nc4ccccc4c(=O)[nH]3)s2)cc1`, for which the substrate turnover was 69% (inactive).
Consider `Cc1ccc(C2C(/C=C3/SC(=S)NC3=O)=C(c3cccs3)Oc3ccccc32)cc1` (stereo not given), for which the substrate turnover is 35%.
With `O=C1C(=C(c2ccccc2)c2ccccc2)Nc2ccccc21`, the substrate turnover was 50%.
In the case of `Nc1cc([N+](=O)[O-])cc2oc(-c3ccccc3)cc12` it was 89% (inactive); in that of `CCN(Cc1ccccc1)c1ccc(N=Nc2nn(C)c(C)c2[N+](=O)[O-])cc1`, 97% (inactive); in that of `Nc1nc(-c2ccccc2)c(N=Nc2ccc(Cl)cc2)s1`, 23%.
Turning to `N=C1C(c2nc3ccccc3s2)=C(O)CN1NC(=O)c1ccccc1[N+](=O)[O-]`, the substrate turnover was 46%.
As to `O=C(NN1C(=O)/C(=C/c2ccc(O)c([N+](=O)[O-])c2)SC1=S)c1ccccc1Cl`, the substrate turnover is 59%.
With `CCOC(=O)/C(C#N)=C/C=C1\C=Cc2ccccc2N1CC`, the substrate turnover was 51%.
For the compound `Cc1oc2cc([N+](=O)[O-])c(O)c([N+](=O)[O-])c2c1C(=O)c1ccc(Br)cc1`, the substrate turnover is 62% (inactive).
Turning to `CCN(CCCNc1cc2c(c(N)c1S(=O)(=O)O)C(=O)c1ccccc1C2=O)c1ccccc1`, the substrate turnover was 80% (inactive).
Turning to `O=C(NC(C(=O)NN=Cc1c2ccccc2cc2ccccc12)c1n[nH]c(=O)c2ccccc12)c1ccccc1` (stereo not given), the substrate turnover was 64% (inactive).
Regarding `c1ccc(N=NC2=NN(c3ccccc3)CS2)cc1`, the substrate turnover is 61% (inactive).
For `Nc1nc(-c2ccccc2)c(N=Nc2cccnc2)s1`, the substrate turnover was 53%.
Regarding `CN(C)c1ccc(N=Nc2ccc(S(=O)(=O)O)cc2)c2ccccc12`, the substrate turnover was 66% (inactive).
As to `CN(C)c1ccc(N=Nc2ccc(S(N)(=O)=O)cc2)cc1`, the substrate turnover was 59%.
For the compound `Cc1ccc(NC2=C(Cl)C(=O)OC2OC(=O)c2ccco2)cc1C` (stereo not given), the substrate turnover was 39%.
Consider `CC1(C)CCCN(C(=O)c2ccc3c(c2NCCO)C(=O)c2ccccc2C3=O)C1`, for which the substrate turnover is 20%.
The figure for `NC(=O)CC(NC(=O)c1ccc(Br)cc1)c1ccc(NCCc2ccc(F)cc2)c([N+](=O)[O-])c1` (stereo not given) is 70% (inactive).
In the case of `O=C(NNc1c2ccccc2nc2ccccc12)c1ccc(O)cc1O` it was 79% (inactive); in that of `O=C(O)c1cc(S(=O)(=O)Nc2cc(Cl)ccc2Oc2ccccc2)ccc1O`, 53%.
In the case of `Nc1ccc(N=Nc2ccccc2)c2cccnc12`, the substrate turnover is 88% (inactive).
As to `O=C1c2cccc(Cl)c2C(=O)c2c1cccc2N1CCCC1`, the substrate turnover is 52%.
Regarding `CCN(CC)c1ccc(N=Nc2nn(C)c(C)c2[N+](=O)[O-])cc1`, the substrate turnover is 68% (inactive).
As to `CN(C)c1ccc(N=Nc2ccccc2C(=O)OCC(=O)NCC2CCCCC2)cc1`, the substrate turnover is 79% (inactive).
The figure for `CCCOc1ccc(C(=O)NNC(=S)NC(=O)c2cc(-c3ccc(Cl)cc3)nc3ccccc23)cc1` is 93% (inactive); for `NP(=O)(OCCCCc1ccccc1)Oc1ccccc1Cl` (stereo not given) it is 25%; for `CC(=O)C1=C(O)C(=O)N(c2cc(C(C)(C)C)on2)C1c1ccc(Br)cc1` (stereo not given) it is 26%.
Regarding `O=C1C(NS(=O)(=O)c2cccs2)=C(N2CCN(c3cccc(Cl)c3)CC2)C(=O)c2ccccc21`, the substrate turnover was 81% (inactive).
With `CC(C1SC(=S)NC1=O)C1SC(=S)NC1=O` (stereo not given), the substrate turnover was 67% (inactive).
In the case of `COC(=O)c1ccccc1NCc1cc(=O)oc2cc(O)c(O)cc12` it was 48%.
The figure for `Cc1cc(N(CCO)CCO)ccc1N=Nc1cc(F)ccc1F` is 69% (inactive); for `COc1ccccc1N=Nc1nc(-c2ccccc2)c(-c2ccccc2)[nH]1` it is 79% (inactive); for `COc1ccc(C=NNc2ccc(C(F)(F)F)cc2[N+](=O)[O-])cc1O` it is 76% (inactive).

For the origin of these results see PubChem BioAssay AID602415 (The Scripps Research Institute Molecular Screening Center, 2012).
